{
  "source": "patent US4950605A",
  "about": "“FR-900493 substance, a process for its production and a pharmaceutical composition containing the same” (Fujisawa Pharmaceutical Co., Ltd., priority 1988, dated 1990)",
  "key": {"[1]": {"system": "Staphylococcus aureus 1601-47", "assay": "Protective efficacy in experimental infections in mice", "assay_type": "in vivo, ddY mouse (infected with Staphylococcus aureus 1601-47)", "settings": "30 mg/kg subcutaneous, one hour after intraperitoneal infection with 3×10^6 cells; male ddY mice 5 weeks; observed 2 days", "description": "Protective efficacy in experimental infections in mice: The in vivo activity of the FR-900493 substance against experimental infections due to Staphylococcus aureus 1601-47 was examined. One hour after the intraperitoneal injection of 3×10^6 cell of the test strain to each ddY mouse (male, 5 weeks age), the solution of the FR-900493 substance was administered subcutaneously."}, "Acute toxicity in mice": {"assay": "Acute toxicity in mice", "assay_type": "in vivo", "settings": "intravenous; ddY mice, 4 weeks age, male", "description": "The median lethal dose (LD50) of the FR-900493 substance in mice (ddY, 4 weeks age, male) by intravenous administration was >500 mg/kg."}, "[2]": {"system": "Staphylococcus aureus 209P JC-1", "assay": "Antimicrobial activity, MIC on 1/2 Mueller-Hinton agar", "assay_type": "cell-based", "settings": "37° C., 24 hours", "description": "(§1) Antimicrobial activities: (a) Test Method One loopful of an overnight culture (10^8 cells/ml) of each test bacteria in bouillon was streaked on 1/2 Mueller-Hinton agar containing the graded concentration of the FR-900493 substance and the minimal inbibitory concentration (MIC) was determined after incubation at 37° C. for 24 hours."}, "[3]": {"system": "Bacillus subtilis ATCC-6633", "assay": "Antimicrobial activity, MIC on 1/2 Mueller-Hinton agar", "assay_type": "cell-based", "settings": "37° C., 24 hours", "description": "as §1"}, "[4]": {"system": "Staphylococcus aureus 1601-6", "assay": "Antimicrobial activity, MIC on 1/2 Mueller-Hinton agar", "assay_type": "cell-based", "settings": "37° C., 24 hours", "description": "as §1"}},
  "data": [
    {"smiles": "CN(CCCN)[C@H](C(=O)O)[C@H](O[C@@H]1O[C@H](CN)[C@@H](O)[C@H]1O)[C@H]1O[C@@H](n2ccc(=O)[nH]c2=O)[C@H](O)[C@@H]1O", "note": "[FR-900493 substance]", "values": [
      {"measurement": "Survival", "setting": "[1]", "result": 100, "unit": "%"},
      {"measurement": "median lethal dose (LD50)", "setting": "Acute toxicity in mice", "result": "> 500", "unit": "mg/kg"},
      {"measurement": "minimal inhibitory concentration (MIC)", "setting": "[2]", "result": 3.13, "unit": "µg/mL"},
      {"measurement": "minimal inhibitory concentration (MIC)", "setting": "[3]", "result": 3.13, "unit": "µg/mL"},
      {"measurement": "minimal inhibitory concentration (MIC)", "setting": "[4]", "result": 6.25, "unit": "µg/mL"}
    ]}
  ]
}
